Measurements published in patent US7329649B2, “Combinatorial methods for inducing cancer cell death” (The Trustees of Columbia University in the City of New York, priority 2001, dated 2008).

Test system: mutated or wild type K-ras expressing pancreatic carcinoma cells
Assay: Cell growth and viable cell numbers (hemocytometer, MTT)
Format: cell-based, human
Method: FIG. 5. […] Cells were treated with the indicated agents for three days and viable cell counts were determined by hemocytometer.
Cell lines, culture conditions and growth assays.

| Substance | growth suppression compared with AS K-ras PS ODN |
| --- | --- |
| MM PS ODN: mismatched K-ras PS ODN CACTTGCAAATATTCAGT (SEQ ID NO:16) (DNA, all phosphorothioate, methylation of C not given here) | significantly less growth suppression |
| SC PS ODN: scrambled K-ras PS ODN ACTAGCTATACTAGCTAT (SEQ ID NO:17) (DNA, all phosphorothioate, methylation of C not given here) | significantly less growth suppression |
